Columns and labels:
PF4 = target: T1, PF4 (Homo sapiens, UniProt P02776); conditions: rank: heparin>heparan sulfate>dermatan sulfate>chondroitin-6-sulfate>chondroitin-4-sulfate; cited from earlier work
T1 sequence (P02776 32-101): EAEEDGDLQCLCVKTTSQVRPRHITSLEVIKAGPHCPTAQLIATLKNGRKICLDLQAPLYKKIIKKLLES

[1] = relative to heparin; cited from earlier work
non-heparinized plasma = assay: aPTT assay of non-heparinized plasma; assay type: biochemical; conditions: FIG. 2 and FIG. 3
Excerpt: (§1) In the aPTT (also referred to as “partial thromboplastin time” or “PTT”) assay, the sample is then mixed with a phospholipid, an activator such as silica, celite, kaolin or ellagic acid, and calcium. The contact activator is used to stimulate production of Factor XIIa. The phospholipids form complexes that activate Factor X and prothrombin. Calcium is used to reverse the anticoagulant effects of the oxalate or citrate. The mixture is then allowed to form a thrombus (clot) and the time to do so is measured. An abnormal or prolonged aPTT time will vary depending on the population and local normal ranges should be known. However, as a general guideline, values over 39 seconds may be considered abnormal and prolonged according to the invention, and such samples may be candidates for further analysis using the methods of the invention.
The PF4-based reagent may be used for the in vitro neutralization of heparin in samples as assessed by the aPTT assay. To ensure an accurate aPTT result the reagent must act specifically to reverse only anticoagulant activity associated with heparin, and otherwise have no effect on the plasma clotting time. […] This phenomenon might be due to PF4-induced stimulation of the thrombin-mediated cleavage of protein C to generate the potent anticoagulant activated protein C (APC). APC acts to inactivate coagulation Factors Va and VIIIa by proteolysis. […]

[2] = test system: unfractionated heparin (UFH); assay: aPTT assay, neutralization of heparin in heparinized plasma; assay type: biochemical; conditions: plasma containing up to 2 U/mL of UFH; FIG. 1 and FIG. 4
Excerpt: PF4 tetramers form a cylindrical structure displaying an equatorial ring of positively charged amino acids around which the polyanionic heparin molecules wrap and bind with exceptionally high affinity. The formation of a PF4-heparin complex strongly impairs the capacity of heparin to bind AT and stimulate its anticoagulant activity.
as §1
The PF4-based reagent may be used for the in vitro neutralization of heparin in samples as assessed by the aPTT assay. […]

Row | Substance | relative binding affinity for PF4 (PF4) | anti-coagulant potency [1] | effect on the aPTT of non-heparinized plasma (non-heparinized plasma) | neutralization of heparin anticoagulant activity (aPTT) [2]
1 | chondroitin-4-sulfate | low relative affinity for PF4 | much lower than that of heparin |  | 
2 | platelet factor 4 [PF4] |  |  | gradual prolongation of the aPTT | fully corrected to baseline
